Results as given in patent publication US6593373B2, “Pharmaceutical compositions of O-desmethyl-N-mono-desmethyl-tramadol” (Gruenenthal GmbH, priority 2000, dated 2003).
pIC50: −log10 of the molar value. Where two headings read alike, the source gives them in different places.

How the values were obtained:
[1] = test system: mice phenylquinone writhing; experiment: Phenylquinone writhing test; type: in vivo
Description: Analgesia was tested in vivo in the mice phenylquinone writhing test. M5 was intravenously administered.

mice tail-flick = experiment: Tail-flick test; settings: for Tail-Flick, mouse ED50 i.c.v. / Tail-Flick, mouse ED50 i.v. / Analgesia in tail-flick test, in words: mouse
Description: Analgesia was tested in vivo in the mice tail-flick test. M5 was first intravenously administered and then directly into a brain ventricle.

[2] = test system: neuronal uptake of Serotonin (5-HT); type: biochemical; settings: rat brain
Source text: The inhibition of neuronal uptake of Serotonin (5-HT) was investigated in in vitro rat brain binding experiments.

[3] = test system: neuronal uptake of norepinephrine (NE); experiment: Noradrenaline uptake inhibition, in vitro rat brain; type: biochemical; settings: for pIC50: read-out: Noradrenalin uptake IC50
Source text: The inhibition of neuronal uptake of monoamines (norepinephrine; NE) was investigated in in vitro rat brain binding experiments.

μ-opioid receptor = target: T1, μ-opioid receptor (Rattus norvegicus, UniProt P33535); experiment: μ-opioid (Naloxon) binding, in vitro rat brain
T1 construct: from tissue; host or cells: rat brain
Source text: The μ-opioid receptor binding was investigated in in vitro rat brain binding experiments using naloxone.

[4] = rat brain, naloxone, read-out: Naloxone binding IC50

T1 sequence (P33535 whole entry): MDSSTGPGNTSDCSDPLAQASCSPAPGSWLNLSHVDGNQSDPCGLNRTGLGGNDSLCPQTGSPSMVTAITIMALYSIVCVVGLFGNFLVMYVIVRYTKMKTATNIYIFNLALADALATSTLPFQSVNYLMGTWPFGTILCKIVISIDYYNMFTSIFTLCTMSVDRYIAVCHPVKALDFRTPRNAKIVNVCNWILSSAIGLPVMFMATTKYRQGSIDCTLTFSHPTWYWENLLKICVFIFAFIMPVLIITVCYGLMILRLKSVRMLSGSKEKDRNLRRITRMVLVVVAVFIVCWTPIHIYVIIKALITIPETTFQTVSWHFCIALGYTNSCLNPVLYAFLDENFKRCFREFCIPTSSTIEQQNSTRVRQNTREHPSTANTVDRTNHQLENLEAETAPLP

Compound: COc1cccc([C@@]2(O)CCCC[C@@H]2CN(C)C)c1 (racemic) [Tramadol, (1RS, 2RS)-2[(dimethylamino)methyl]-1-(3-methoxyphenyl)-cyclohexanol]
- Writhing, mouse ED50 i.c.v. [1]: 67.3 μg/animal
- ED50 ([1]; iv, mouse): 6.93 mg/kg
- ED50 (mice tail-flick; Mus musculus, iv, read-out: Tail-Flick, mouse ED50 i.v.): 13.6 mg/kg
- Tail-Flick, mouse ED50 i.c.v. (mice tail-flick): 98.0 μg/animal

Compound: CN(C)C[C@H]1CCCC[C@]1(O)c1cccc(O)c1 [M1]
- Writhing, mouse ED50 i.c.v. [1]: 0.58 μg/animal
- Writhing, mouse ED50 i.v. [1]: 0.49 mg/kg
- Tail-Flick, mouse ED50 i.c.v. (mice tail-flick): 2.1 μg/animal
- Tail-Flick, mouse ED50 i.v. (mice tail-flick): 1.90 mg/kg
- pIC50 [2]: 4.62
- pIC50 [3]: 4.38

Compound: CNCC1CCCCC1(O)c1cccc(OC)c1 (stereo not drawn) [M2]
- Writhing, mouse ED50 i.v. [1]: no effect
- Tail-Flick, mouse ED50 i.v. (mice tail-flick): no effect
- pIC50 (μ-opioid receptor; [4]): 4.31
- pIC50 [2]: 4.98
- pIC50 [3]: 5.37

Compound: COc1cccc([C@@]2(O)CCCC[C@@H]2CN)c1 [M3]
- Writhing, mouse ED50 i.v. [1]: no effect
- Tail-Flick, mouse ED50 i.v. (mice tail-flick): no effect
- pIC50 (μ-opioid receptor; [4]): 3.69
- pIC50 [2]: 4.31
- pIC50 [3]: 4.32

Compound: NC[C@H]1CCCC[C@]1(O)c1cccc(O)c1 [M4]
- Writhing, mouse ED50 i.v. [1]: no effect
- Tail-Flick, mouse ED50 i.v. (mice tail-flick): no effect
- pIC50 (μ-opioid receptor; [4]): 4.62
- pIC50 [2]: 3.43
- pIC50 [3]: 3.98

Compound: CNCC1CCCCC1(O)c1cccc(O)c1 (stereo not drawn) [M5, O-desmethyl-N-mono-desmethyl-tramadol]
- Writhing, mouse ED50 i.c.v. [1]: 4.99 μg/animal
- Writhing, mouse ED50 i.v. [1]: no effect
- Analgesia in writhing test, in words ([1]; mouse, intravenous administration): no pronounced effect
- Penetration of the blood brain barrier, in words (mice tail-flick; concluded from i.v. versus i.c.v. analgesia): poor penetration of the blood brain barrier
- Analgesia in tail-flick test, in words (mice tail-flick; direct administration into a brain ventricle): a pronounced effect was seen
- Tail-Flick, mouse ED50 i.c.v. (mice tail-flick): 32.4 μg/animal
- Tail-Flick, mouse ED50 i.v. (mice tail-flick): no effect
- Analgesia in tail-flick test, in words (mice tail-flick; intravenously administered): no pronounced effect
- pIC50 (μ-opioid receptor): 6.51
- μ-opioid receptor affinity (naloxone binding), in words (μ-opioid receptor; rat brain): strong enough to induce in vivo analgesia
- pIC50 [2]: 3.92
- Inhibition of serotonin uptake, in words [2]: no pronounced effect
- Inhibition of norepinephrine uptake, in words [3]: no pronounced effect
- pIC50 [3]: 4.88
